Patent US12655116B2, “Substituted isophthalic acid diamides” (Bayer Aktiengesellschaft, priority 2020, dated 2026)

System: harmful plants
Assay: Comparative experiments: herbicidal pre-emergence action versus compounds known from D1 (WO 2012/028579 A1)
Type: in vivo
Set-up: key to Herbicidal action against ALOMY / Herbicidal action against AVEFA / Herbicidal action against SETVI / Herbicidal action against AMARE / Herbicidal action against STEME / Herbicidal action against VIOTR / Herbicidal action against HORMU / Herbicidal action against MATIN / Herbicidal action against ABUTH: % herbicidal activity: 0 = like control, 100 = plants died
Description: Seeds of monocotyledonous and dicotyledonous weed plants and crop plants are laid out in sandy loam soil in wood-fiber pots and covered with soil. The compounds of the invention, formulated in the form of wettable powders (WP) or as emulsion concentrates (EC), are then applied to the surface of the covering soil in the form of an aqueous suspension or emulsion at a water application rate equivalent to 600 to 800 l/ha, with addition of 0.2% wetting agent. After the treatment, the pots are placed in a greenhouse and kept under good growth conditions for the trial plants. The damage to the test plants is scored visually after a test period of 3 weeks by comparison with untreated controls (herbicidal activity in percent (%): 100% activity=the plants have died, 0% activity=like control plants). […] The tables below illustrate, in an illustrative manner, the post-emergence herbicidal action of the compounds of the invention, the herbicidal activity being stated in percent. In the experiments that follow, herbicidal action of numerous inventive compounds and the structurally closest compounds known from D1 (WO 2012/028579 A1) were compared under the above-specified conditions by the pre-emergence and post-emergence method. The example numbers given in the tables relate to the compounds disclosed in the respective documents.

Row | SMILES | Herbicidal action against ABUTH (20 g a.i./ha) | Herbicidal action against AMARE (20 g a.i./ha) | Herbicidal action against AVEFA (20 g a.i./ha) | Herbicidal action against MATIN (20 g a.i./ha) | Herbicidal action against STEME (20 g a.i./ha) | Herbicidal action against VIOTR (20 g a.i./ha) | Herbicidal action against ABUTH (80 g a.i./ha) | Herbicidal action against ALOMY (80 g a.i./ha) | Herbicidal action against AVEFA (80 g a.i./ha) | Herbicidal action against MATIN (80 g a.i./ha) | Herbicidal action against STEME (80 g a.i./ha) | Herbicidal action against VIOTR (80 g a.i./ha) | Herbicidal action against AMARE (80 g a.i./ha) | Herbicidal action against SETVI (80 g a.i./ha) | Herbicidal action against POLCO (20 g a.i./ha, POLCO) | Herbicidal action against SETVI (20 g a.i./ha) | Herbicidal action against HORMU (80 g a.i./ha, HORMU)
1 | CNC(=O)c1c(C(F)(F)F)ccc(C(=O)Nc2nnnn2C)c1Cl [Example 1-129] | 100 | 100 | 100 | 100 | 100 | 100 | 100 | 100 | 100 | 100 | 100 | 100 |  |  |  |  | 
2 | CNC(=O)c1c(C(F)F)ccc(C(=O)Nc2nnnn2C)c1Cl [Example 1-147] |  |  |  |  |  |  |  | 90 | 100 |  | 100 | 100 | 100 | 100 |  |  | 
3 | CCn1nnnc1NC(=O)c1ccc(C(F)(F)F)c(C(=O)NC)c1Cl [Example 2-129] | 100 |  | 100 | 100 |  | 100 |  |  |  |  |  |  |  |  | 100 | 100 | 
4 | CCn1nnnc1NC(=O)c1ccc(C(F)F)c(C(=O)NC)c1Cl [Example 2-147] |  |  |  |  |  |  |  | 90 | 100 |  | 70 |  |  | 100 |  |  | 90
